# Values quoted from earlier work as cited in article PMC9667546, “Selective Inhibition of Bruton’s Tyrosine Kinase by a Designed Covalent Ligand Leads to Potent Therapeutic Efficacy in Blood Cancers Relative to Clinically Used Inhibitors” (ACS Pharmacology & Translational Science, 2022).
# Assays:
# JAK3 = target: T1, JAK3 (Homo sapiens, UniProt P52333); settings: Table S3 heat map; ref SI 1-19; cited from earlier work
# T1 construct: host or cells: HEK296T (so in the source)
# ITK = target: T2, ITK (Homo sapiens, UniProt Q08881); settings: Table S3 heat map; ref SI 1-19; cited from earlier work
# T2 construct: host or cells: HEK296T (so in the source)
# T2 sequence (Q08881 1-620): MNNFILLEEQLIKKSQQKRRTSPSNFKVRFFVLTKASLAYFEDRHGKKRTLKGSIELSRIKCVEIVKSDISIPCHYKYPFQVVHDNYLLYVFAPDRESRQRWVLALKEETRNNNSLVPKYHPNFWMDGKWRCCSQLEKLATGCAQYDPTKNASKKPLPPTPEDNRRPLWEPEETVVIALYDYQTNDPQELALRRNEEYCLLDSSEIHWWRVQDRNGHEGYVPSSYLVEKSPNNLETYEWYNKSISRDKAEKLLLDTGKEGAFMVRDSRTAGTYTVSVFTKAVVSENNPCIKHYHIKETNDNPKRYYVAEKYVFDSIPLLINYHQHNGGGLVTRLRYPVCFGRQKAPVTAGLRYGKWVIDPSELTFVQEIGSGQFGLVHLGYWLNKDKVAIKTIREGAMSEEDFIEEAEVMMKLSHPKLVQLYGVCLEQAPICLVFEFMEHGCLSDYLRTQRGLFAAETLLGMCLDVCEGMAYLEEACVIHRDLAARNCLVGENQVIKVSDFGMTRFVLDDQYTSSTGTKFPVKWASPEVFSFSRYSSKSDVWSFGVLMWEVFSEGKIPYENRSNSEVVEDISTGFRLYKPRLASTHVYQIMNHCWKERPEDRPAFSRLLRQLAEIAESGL
# TXK = target: T3, TXK (Homo sapiens, UniProt P42681); settings: Table S3 heat map; ref SI 1-19; cited from earlier work
# T3 construct: host or cells: HEK296T (so in the source)
# T3 sequence (P42681 1-527): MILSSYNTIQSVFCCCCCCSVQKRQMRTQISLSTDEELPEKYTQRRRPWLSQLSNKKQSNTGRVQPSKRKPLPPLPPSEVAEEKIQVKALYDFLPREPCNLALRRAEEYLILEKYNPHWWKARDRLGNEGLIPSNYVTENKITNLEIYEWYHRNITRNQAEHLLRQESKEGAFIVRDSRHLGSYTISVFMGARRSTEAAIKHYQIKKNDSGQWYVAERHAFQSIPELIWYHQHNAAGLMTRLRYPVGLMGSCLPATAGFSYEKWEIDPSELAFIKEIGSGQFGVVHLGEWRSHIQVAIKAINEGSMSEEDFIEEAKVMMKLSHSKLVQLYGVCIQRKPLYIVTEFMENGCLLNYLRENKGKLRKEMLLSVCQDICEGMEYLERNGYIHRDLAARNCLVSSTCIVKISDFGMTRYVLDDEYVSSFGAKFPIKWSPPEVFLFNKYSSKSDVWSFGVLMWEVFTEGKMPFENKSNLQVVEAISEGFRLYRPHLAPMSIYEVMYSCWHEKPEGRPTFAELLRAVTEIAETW
# BTK = BTK (Homo sapiens, UniProt Q06187); parameters: purchased Promega Corporation V2941; settings: Table S3 heat map; ref SI 1-19; read-out: IC50, BTK; cited from earlier work
# Chain of BTK (Q06187 whole entry): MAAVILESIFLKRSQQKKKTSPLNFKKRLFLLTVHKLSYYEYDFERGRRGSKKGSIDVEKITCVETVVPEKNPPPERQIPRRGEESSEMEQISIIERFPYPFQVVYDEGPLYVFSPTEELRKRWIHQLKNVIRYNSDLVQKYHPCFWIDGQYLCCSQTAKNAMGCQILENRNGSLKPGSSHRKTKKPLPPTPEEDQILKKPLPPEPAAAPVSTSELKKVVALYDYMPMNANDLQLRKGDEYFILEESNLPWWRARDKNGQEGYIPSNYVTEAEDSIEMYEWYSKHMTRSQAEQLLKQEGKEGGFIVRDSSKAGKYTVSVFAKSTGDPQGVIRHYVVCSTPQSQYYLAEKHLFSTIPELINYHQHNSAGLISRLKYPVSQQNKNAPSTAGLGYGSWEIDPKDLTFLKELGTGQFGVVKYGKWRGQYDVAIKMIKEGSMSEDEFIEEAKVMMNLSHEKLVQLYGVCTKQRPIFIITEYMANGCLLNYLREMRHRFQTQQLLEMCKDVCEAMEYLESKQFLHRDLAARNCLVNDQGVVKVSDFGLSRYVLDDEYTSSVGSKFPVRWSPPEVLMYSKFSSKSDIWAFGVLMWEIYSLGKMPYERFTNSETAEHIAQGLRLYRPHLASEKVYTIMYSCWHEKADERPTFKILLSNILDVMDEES
# EGFR = target: T4, EGFR (Homo sapiens, UniProt P00533); settings: Table S3 heat map; ref SI 1-19; cited from earlier work
# T4 construct: host or cells: HEK296T (so in the source)
# T4 sequence (P00533 25-1210): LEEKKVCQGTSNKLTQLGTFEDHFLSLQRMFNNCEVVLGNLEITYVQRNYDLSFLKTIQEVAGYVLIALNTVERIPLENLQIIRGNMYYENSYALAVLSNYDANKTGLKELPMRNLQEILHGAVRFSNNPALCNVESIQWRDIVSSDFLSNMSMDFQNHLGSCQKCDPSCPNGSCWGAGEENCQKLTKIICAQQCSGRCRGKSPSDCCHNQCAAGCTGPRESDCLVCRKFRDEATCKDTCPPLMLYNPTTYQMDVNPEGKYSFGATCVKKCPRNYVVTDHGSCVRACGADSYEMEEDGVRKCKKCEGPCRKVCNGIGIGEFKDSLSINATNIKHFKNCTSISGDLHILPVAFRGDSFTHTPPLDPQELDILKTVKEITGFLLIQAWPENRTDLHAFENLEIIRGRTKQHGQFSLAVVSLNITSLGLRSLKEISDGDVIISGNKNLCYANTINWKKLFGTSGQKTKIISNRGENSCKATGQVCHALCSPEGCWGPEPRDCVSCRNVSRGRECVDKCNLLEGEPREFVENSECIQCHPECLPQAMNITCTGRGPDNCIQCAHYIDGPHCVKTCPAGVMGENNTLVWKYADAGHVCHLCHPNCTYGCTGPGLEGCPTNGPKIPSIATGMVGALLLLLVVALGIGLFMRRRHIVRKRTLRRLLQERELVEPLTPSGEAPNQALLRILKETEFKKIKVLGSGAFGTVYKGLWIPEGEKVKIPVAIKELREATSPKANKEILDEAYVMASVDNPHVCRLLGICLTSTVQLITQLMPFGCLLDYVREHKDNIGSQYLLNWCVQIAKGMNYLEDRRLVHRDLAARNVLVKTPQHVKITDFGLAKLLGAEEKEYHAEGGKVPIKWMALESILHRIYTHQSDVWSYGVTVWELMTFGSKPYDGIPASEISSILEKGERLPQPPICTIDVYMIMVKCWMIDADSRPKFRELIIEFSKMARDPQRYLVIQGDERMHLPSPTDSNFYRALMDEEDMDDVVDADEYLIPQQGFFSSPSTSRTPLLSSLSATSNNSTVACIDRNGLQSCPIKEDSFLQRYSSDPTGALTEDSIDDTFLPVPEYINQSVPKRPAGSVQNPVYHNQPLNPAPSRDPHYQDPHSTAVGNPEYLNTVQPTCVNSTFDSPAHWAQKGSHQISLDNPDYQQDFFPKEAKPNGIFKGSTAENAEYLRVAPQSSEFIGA
# TEC = target: T5, TEC (Homo sapiens, UniProt P42680); settings: Table S3 heat map; ref SI 1-19; cited from earlier work
# T5 construct: host or cells: HEK296T (so in the source)
# T5 sequence (P42680 1-631): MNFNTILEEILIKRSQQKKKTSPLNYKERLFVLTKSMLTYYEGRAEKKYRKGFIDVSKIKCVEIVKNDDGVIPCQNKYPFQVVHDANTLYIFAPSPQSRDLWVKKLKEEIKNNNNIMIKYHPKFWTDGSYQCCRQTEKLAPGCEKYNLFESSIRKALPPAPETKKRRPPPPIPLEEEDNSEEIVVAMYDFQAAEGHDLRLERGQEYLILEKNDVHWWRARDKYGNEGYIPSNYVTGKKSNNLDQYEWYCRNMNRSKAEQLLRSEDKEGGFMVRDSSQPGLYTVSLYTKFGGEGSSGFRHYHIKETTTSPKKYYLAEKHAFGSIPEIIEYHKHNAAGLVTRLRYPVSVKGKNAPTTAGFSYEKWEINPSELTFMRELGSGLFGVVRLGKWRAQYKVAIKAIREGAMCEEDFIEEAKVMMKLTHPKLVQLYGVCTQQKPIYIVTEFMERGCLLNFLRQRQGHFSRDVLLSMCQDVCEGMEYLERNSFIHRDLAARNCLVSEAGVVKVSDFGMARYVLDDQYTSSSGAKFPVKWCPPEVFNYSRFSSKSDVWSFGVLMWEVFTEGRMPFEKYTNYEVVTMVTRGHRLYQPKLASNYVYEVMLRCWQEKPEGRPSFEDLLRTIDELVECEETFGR
# Her2 = settings: read-out: IC50, Her2; Table S3 heat map; ref SI 1-19; cited from earlier work
# T1 sequence (P52333 whole entry): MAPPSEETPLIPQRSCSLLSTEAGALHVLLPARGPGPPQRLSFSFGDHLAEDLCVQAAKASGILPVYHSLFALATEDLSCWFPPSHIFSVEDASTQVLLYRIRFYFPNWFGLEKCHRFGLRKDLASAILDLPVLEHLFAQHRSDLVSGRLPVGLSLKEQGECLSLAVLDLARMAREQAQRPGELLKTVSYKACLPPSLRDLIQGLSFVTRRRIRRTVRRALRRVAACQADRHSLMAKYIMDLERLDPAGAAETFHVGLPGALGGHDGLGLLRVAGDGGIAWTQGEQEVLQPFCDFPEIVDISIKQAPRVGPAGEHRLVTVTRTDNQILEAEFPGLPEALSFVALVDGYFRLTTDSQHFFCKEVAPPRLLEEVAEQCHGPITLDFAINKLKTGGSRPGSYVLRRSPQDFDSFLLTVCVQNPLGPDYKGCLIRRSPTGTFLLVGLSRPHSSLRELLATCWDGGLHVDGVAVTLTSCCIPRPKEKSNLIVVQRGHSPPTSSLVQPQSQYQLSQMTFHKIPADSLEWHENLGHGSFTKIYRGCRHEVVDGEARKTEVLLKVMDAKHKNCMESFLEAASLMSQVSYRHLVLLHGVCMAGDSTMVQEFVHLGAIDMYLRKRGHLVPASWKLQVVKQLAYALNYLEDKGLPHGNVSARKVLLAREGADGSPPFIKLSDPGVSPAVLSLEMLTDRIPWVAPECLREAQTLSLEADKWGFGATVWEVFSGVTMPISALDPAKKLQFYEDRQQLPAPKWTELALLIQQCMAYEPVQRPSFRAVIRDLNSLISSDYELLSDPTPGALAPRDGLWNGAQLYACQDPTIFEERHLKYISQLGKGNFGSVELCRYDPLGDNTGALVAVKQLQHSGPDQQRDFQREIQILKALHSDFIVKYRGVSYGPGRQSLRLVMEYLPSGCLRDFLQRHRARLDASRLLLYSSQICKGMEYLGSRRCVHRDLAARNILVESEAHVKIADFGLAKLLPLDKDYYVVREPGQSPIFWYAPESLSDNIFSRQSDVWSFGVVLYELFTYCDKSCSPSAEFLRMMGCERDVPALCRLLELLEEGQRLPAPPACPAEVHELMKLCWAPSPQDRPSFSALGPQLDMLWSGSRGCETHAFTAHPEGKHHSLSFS
structure (smiles),measurement,setting,value
CC#CC(=O)N1CC[C@@H](n2cc(-c3ccc(Oc4c(F)cccc4F)cc3)c3c(N)n[nH]c(=O)c32)C1 [TG-1701],IC50,JAK3,> 3 µM
same,IC50,ITK,> 3 µM
same,IC50,TXK,136 nM
same,IC50,BTK,3 nM
same,IC50,EGFR,270 nM
same,IC50,TEC,4 nM
same,IC50,Her2,> 3000 nM
